Literature values, collected in patent US20260200930A1, “PRODRUGS OF TEMOZOLOMIDE TO FACILITATE DELIVERY INTO BRAIN TUMORS” (H. LEE MOFFITT CANCER CENTER AND RESEARCH INSTITUTE, INC., priority 2022, published 2026).

Experiments:
[1] = oral chemotherapy; % of the highest plasma concentration

brain concentration relative to highest plasma concentration that can safely be obtained [1]: about 40% | solubility in water: insoluble in water
Structure (SMILES): Cn1nnc2c(C(N)=O)ncn2c1=O [TMZ, temozolomide]
